Tests used:
[1] = Absorption test using beagle (oral administration, EM-FU concentration in plasma); format: in vivo; conditions: preparations corresponding to 100 mg BOF-A2 per beagle, all cases
[2] = after administration in vivo; via conversion into EM-FU and CNDP; cited from earlier work

Compound: CCOCn1cc(F)c(=O)n(C(=O)c2cccc(C(=O)Oc3nc(OC(=O)c4ccccc4)ccc3C#N)c2)c1=O [BOF-A2, 3-[3-(6-Benzoyloxy-3-cyano-2-pyridyloxycarbonyl)benzoyl]-1-ethoxymethyl-5-fluorouracil]
- non-changed compound (BOF-A2) in plasma [1]: not detected
- anti-cancer activity [2]: continuous and strong anti-cancer activity

From patent publication US5316773A, “Particulate preparation containing a flourracil derivative and hydroxypropylmethyl-cellulose” (Otsuka Pharmaceutical Co., Ltd., priority 1990, dated 1994)
